How the values were obtained:
[1] = Pharmacokinetic study of compounds in mice (brain, oral); assay type: in vivo, male C57BL/6 mice; settings: 5 mg/kg
Description: Healthy male C57BL/6 mice (8-12 weeks old) weighing between 17 to 35 g were procured from Global, India. Temperature and humidity were maintained at 22±3° C. and 30-70%, respectively and illumination was controlled to give a sequence of 12 hr light and 12 hr dark cycle. Temperature and humidity were recorded by auto-controlled data logger system. All the animals were provided laboratory rodent diet. Reverse osmosis water treated with ultraviolet light was provided ad libitum.
Protocol A: Twenty-four male mice were divided into two groups as; Group 1:30 mg/kg/IP, Plasma and brain; Number of animals=12; Animal #1-12. Group 2:30 mg/kg/PO; Plasma and brain; Number of animals=12; Animal #13-24. […] All samples were processed for analysis by protein precipitation using acetonitrile and analyzed with fit-for-purpose LC/MS/MS method (LLOQ-2.02 ng/mL for plasma and 6.06 ng/g for brain). Pharmacokinetic parameters were calculated using the non-compartmental analysis tool of Phoenix WinNonlin®.
Protocol B: Thirty six mice were included into the study and divided in to three groups as Group 1 (n=12), Group 2 (n=12) and Group 3 (n=12) with n=2 mice per time-point design. […] Plasma and brain samples were quantified by fit-for-purpose LC-MS/MS method (LLOQ: 1.01 ng/mL for plasma and 2.02 ng/ml for brain). […]

human recombinant FAAH = human recombinant FAAH (Homo sapiens (Human), UniProt O00519); experiment: FAAH counter screen (Fatty Acid Amide Hydrolase Inhibitor Screening Assay Kit); assay type: biochemical; settings: Method B: starting concentration of 10 μM
Description: MAGL inhibitor compounds were also counter-screened for FAAH inhibition potency using the following assay. Assessment of FAAH inhibition was performed using Fatty Acid Amide Hydrolase Inhibitor Screening Assay Kit (Cayman Item No. 10005196) following manufacture's instruction with some modifications. The kit utilizes human recombinant FAAH and the fluorescent substrate, AMC Arachidonoyl amide (AAMCA). 5 μL of assay buffer (125 mM Tris, pH 9.0, 1 mM EDTA, i.e. ethylenediaminetetraacetic acid) was added to a 384-well black plate (Corning, 3573). Test compounds and control inhibitor JZL-195 (Cayman Chemical, 13668) were tested in 10-concentration IC50 mode with 3-fold serial dilution at a starting concentration of 100 μM and 10 μM, respectively. 300 nL or 30 nL of test compounds were delivered into a 384-well black plate (Corning, 3573) using a Labcyte Echo, followed by addition of 15 μL of FAAH enzyme (Cayman, 700302) in assay buffer. After a 5-minute pre-incubation at room temperature, 10 μL of AAMCA was added in assay buffer to start the reaction. Final concentration of FAAH enzyme is not specified and AAMCA substrate was used at the 20 μM. After these dilutions, the final concentration of the test compounds ranged from 100 μM to 5.08 nM or 10 μM down to 0.508 nM. The reaction was allowed to progress for 60 minutes, while the plate was read on an Envision plate reader at an Ex/Em of 350/460 nm with readings every minute. The data was analyzed in Microsoft Excel, using the slope between 30 and 59 minutes. The average of the no-enzyme wells (background) was subtracted from the data. The background-subtracted slope data was converted to % activity using the average of wells with enzyme and DMSO vehicle. IC50 values were calculated using GraphPad software (Sigmoidal dose response, variable slope equation).
Compounds listed in Table D2 were tested in the FAAH Counterscreen of Example 19

2-AG levels in brain = experiment: 2-AG estimation in mouse brain after single intraperitoneal administration of Compound 473; assay type: in vivo, male C57BL/6 mice; settings: IP 20 mg/kg, 0.5 h
Description: (§1) This experiment was performed to determine plasma pharmacokinetics and estimate 2-AG levels in male C57BL/6 mice brain following a single intraperitoneal administration of Compound-473 (Dose: 20 mg/kg).
(§2) Study Design: A total of twelve C57BL/6 male mice were used in this study. Six animals were administered intraperitoneally with solution formulation of PSY-05-00473-002 at 20 mg/kg dose. Six animals were administered vehicle (5% NMP, 5% Solutol HS15 and 90% Normal saline) intraperitoneally at 10 mL/kg dose volume. Blood samples (approximately 60 μL) were collected under light isoflurane anesthesia from a set of six mice at 0.5 h. Plasma was harvested by centrifugation of blood and stored at −70±10° C. until analysis. After blood collection, mice were euthanized by cervical dislocation and brain samples were dissected rapidly and snapped frozen in liquid nitrogen and stored at −80. To homogenize, removed brain samples from the freezer, were divided into two equal hemispheres and weighed while still in frozen condition, and begun homogenization/extraction procedure without allowing the brain samples to thaw. […]
(§3) Analysis: For PK estimation, brain samples were homogenized in 2 volumes of PBS of brain weight. […] Plasma and brain homogenate samples were quantified by fit-for-purpose LC-MS/MS method (LLOQ: 1.02 ng/mL for plasma and 2.03 ng/ml for brain).

[2] = Plasma and brain concentrations after single intraperitoneal administration of Compound 473; assay type: in vivo, male C57BL/6 mice; settings: male, C57BL/6, mouse, IP 20 mg/kg, read-out: Brain/Plasma Ratio (kp) (mean)
Description: as §1, §2, §3

human MAGL = human MAGL (Homo sapiens (Human), UniProt Q99685); experiment: MAGL reversible inhibition assay (washout); assay type: biochemical; settings: pre-washout compound concentration: 1 μM
Description: The reversible mechanism of MAGL inhibition of a test compound of Formula (I) can be determined. Flag-tagged MAGL enzyme will be immobilized on anti-Flag beads. Immobilized enzyme will be incubated+/−inhibitor at a dose that produces complete inhibition. Colorimetric substrate (4-NPA) will be added and the reaction monitored on a plate reader for 30 minutes to verify complete inhibition. Immobilized enzyme will then be washed thoroughly to remove the inhibitor, and fresh substrate will be added. The reaction will be monitored for an additional 30 minutes; returning enzymatic activity will indicate reversibility of inhibition.
MAGL enzyme was incubated for 30 minutes in the presence of 40× the IC50 concentration of inhibitor. Enzyme+inhibitor mix was then diluted 40-fold so that the final concentration of the inhibitor equaled the IC50 concentration. Substrate was added and the reaction was monitored for 30 minutes.

Chain of human MAGL (Q99685 whole entry): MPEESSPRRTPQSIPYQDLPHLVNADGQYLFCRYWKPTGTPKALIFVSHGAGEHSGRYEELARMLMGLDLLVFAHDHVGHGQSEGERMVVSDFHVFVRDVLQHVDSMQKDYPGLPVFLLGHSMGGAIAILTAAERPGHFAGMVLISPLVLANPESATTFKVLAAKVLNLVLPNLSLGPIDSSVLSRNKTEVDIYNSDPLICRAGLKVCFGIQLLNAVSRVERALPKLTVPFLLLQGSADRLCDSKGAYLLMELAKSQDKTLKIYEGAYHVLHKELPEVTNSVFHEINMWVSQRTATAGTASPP
Chain of human recombinant FAAH (O00519 whole entry): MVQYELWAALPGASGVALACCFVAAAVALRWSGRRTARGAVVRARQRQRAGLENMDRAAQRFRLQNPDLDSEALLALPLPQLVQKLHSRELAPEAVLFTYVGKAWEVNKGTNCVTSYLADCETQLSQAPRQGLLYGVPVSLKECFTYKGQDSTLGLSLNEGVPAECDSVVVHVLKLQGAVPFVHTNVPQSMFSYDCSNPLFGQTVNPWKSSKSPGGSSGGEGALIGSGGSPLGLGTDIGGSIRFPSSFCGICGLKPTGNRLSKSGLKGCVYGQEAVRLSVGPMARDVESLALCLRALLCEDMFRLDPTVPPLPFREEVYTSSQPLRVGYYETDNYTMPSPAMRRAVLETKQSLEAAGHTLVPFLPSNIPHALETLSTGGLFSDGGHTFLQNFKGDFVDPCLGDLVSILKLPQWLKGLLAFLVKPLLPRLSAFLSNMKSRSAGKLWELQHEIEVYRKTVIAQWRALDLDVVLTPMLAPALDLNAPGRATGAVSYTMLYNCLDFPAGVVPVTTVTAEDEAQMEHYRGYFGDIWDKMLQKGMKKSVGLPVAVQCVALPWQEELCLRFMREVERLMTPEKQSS

O=C(c1cc(O)ccc1F)N1CC2(CC(n3cc(C(F)(F)F)c(-c4ccccc4F)n3)C2)C1 [Compound 473, (2-fluoro-5-hydroxyphenyl) {6-[3-(o-fluorophenyl)-4-(trifluoromethyl)-1-pyrazolyl]-2-aza-2-spiro[3.3]heptyl}methanone]
AUClast [1]: 464.42 ng·h/mL | Cmax [1]: 171.59 ng/g | IC50 (human recombinant FAAH): > 10 µM | Mean 2AG Concentration in Brain (2-AG levels in brain): 17.38 nmol/g | Kp at 0.5 h [2]: 1.44 | A: degree to which MAGL enzymatic activity returned following washout (human MAGL): 41

— patent US20250170100A1, “MONOACYLGLYCEROL LIPASE INHIBITORS AND USE THEREOF FOR THE TREATMENT OF ANXIETY AND RELATED CONDITIONS” (Psy Therapeutics, Inc., priority 2021, published 2025)
